This note sets out measurements from ChEMBL document CHEMBL1201862, “PubChem BioAssay data set” (2004).

The structures appear in SMILES notation.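 Cells were grown in 96-well plates and exposed to each compound for 48 hours at five concentrations; endpoints were interpolated linearly between bracketing concentrations, or set to the highest concentration if not reached. Abbreviation: GI50, concentration required for 50% inhibition of growth.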 Calls of active or inactive are those of the source. Cut-off read from the data, not from the text of the source: active = GI50 up to about 1.1 µM and inactive = higher.

Test systems include BT-549; OVCAR-4; PC-3; MCF7; RXF 393; Malme-3M; HCT-15; T47D; KM12; RPMI-8226; M14; CAKI-1; ACHN; CCRF-CEM; MDA-N; UACC-62.
Common to all, as to test: inhibition of tumour cell growth, NCI panel, 48 h

For the compound `Cc1c(CNc2ccc(C(=O)NC(CCCNC(=O)c3ccccc3C(=O)O)C(=O)O)cc2)cnc2nc(N)nc(N)c12` (stereo unspecified), the GI50 was 1.11 µM (active) in the assay on BT-549; 1.55 µM (inactive) in the assay on OVCAR-4; 2 µM (inactive) with PC-3; 0.0007 µM (active) in the assay with MCF7; 0.382 µM (active) in the assay on RXF 393; 0.468 µM (active) with Malme-3M. In addition, the GI50 in the assay with HCT-15 is 0.000453 µM; with T47D, 0.0615 µM (active); in the assay with KM12 it was 0.000521 µM (active); in the assay with RPMI-8226, 0.000834 µM (active); in the assay on M14, 0.000656 µM (active); with CAKI-1, 0.001 µM (active). The GI50 was 0.000393 µM (active) in the assay with ACHN, 0.00057 µM (active) in the assay on CCRF-CEM, 0.001 µM (active) in the assay on MDA-N and 0.000396 µM (active) with UACC-62.
In the case of `CN(C)CCOc1ccc2[nH]c(C(=O)N3CC(CCl)c4c3cc(N)c3ccccc43)cc2c1` (stereo unspecified), the GI50 with BT-549 was < 0.01 µM (active); in the assay on OVCAR-4, < 0.01 µM (active); in the assay with PC-3, < 0.01 µM (active); in the assay on MCF7, < 0.01 µM (active); in the assay with Malme-3M it was < 0.01 µM (active); with HCT-15 it was < 0.01 µM. Moreover, the GI50 in the assay with T47D, in the assay with KM12, in the assay with RPMI-8226, in the assay on M14, with CAKI-1 and in the assay on ACHN was < 0.01 µM (active) throughout. Also, the GI50 in the assay on CCRF-CEM, with MDA-N and in the assay with UACC-62 was < 0.01 µM (active) throughout.
Turning to `CCOC(=O)CC(c1ccccc1)C(C)(C(=O)OCC)C(=O)OCC` (stereo unspecified), the GI50 in the assay on BT-549 is 70.1 µM (inactive); in the assay with OVCAR-4 it was > 100 µM (inactive); with PC-3, 77.6 µM (inactive); with MCF7 it was > 100 µM (inactive); in the assay on RXF 393, 3.23 µM (inactive); in the assay with Malme-3M, > 100 µM (inactive). Moreover, the GI50 with HCT-15 is > 100 µM; in the assay with T47D it was 78.2 µM (inactive); in the assay with KM12, > 100 µM (inactive); in the assay with M14, > 100 µM (inactive); in the assay on CAKI-1 it was > 100 µM (inactive); in the assay on ACHN, > 100 µM (inactive). Also, the GI50 with CCRF-CEM is > 100 µM (inactive); with MDA-N, > 10 µM (inactive); in the assay on UACC-62, > 100 µM (inactive).
Turning to `Cc1ccc(S(=O)(=O)N/N=C2/C3CCC(C3)C2c2ccccc2)cc1` (stereo unspecified), the GI50 in the assay with BT-549 was > 100 µM (inactive); in the assay on OVCAR-4 it was > 100 µM (inactive); in the assay on PC-3 it was > 100 µM (inactive); in the assay on MCF7, > 100 µM (inactive); in the assay on Malme-3M, > 100 µM (inactive); in the assay on HCT-15, > 100 µM. In addition, the GI50 in the assay on T47D, in the assay on KM12, in the assay with RPMI-8226, in the assay with M14, in the assay on CAKI-1 and in the assay on ACHN was > 100 µM (inactive) each time. Also, the GI50 in the assay on CCRF-CEM, in the assay on MDA-N and with UACC-62 was > 100 µM (inactive) throughout.
`C/C(CC1C2CCCC1C2)=N\NC(N)=O` (stereo unspecified): the GI50 in the assay on BT-549 is > 100 µM (inactive); in the assay with OVCAR-4 it was > 100 µM (inactive); with PC-3, > 100 µM (inactive); in the assay on MCF7, > 100 µM (inactive); with Malme-3M, > 100 µM (inactive); with HCT-15, > 100 µM. Besides, the GI50 in the assay with T47D, in the assay on KM12, in the assay on RPMI-8226, in the assay with M14, in the assay with CAKI-1 and with ACHN was > 100 µM (inactive) each time. For the same compound, the GI50 with CCRF-CEM, with MDA-N and in the assay on UACC-62 was > 100 µM (inactive) each time.
As for `O=C(Cn1cc(Br)c(=O)[nH]c1=O)c1ccc(-c2ccccc2)cc1`, the GI50 in the assay on BT-549 is 3.18 µM (inactive); in the assay with OVCAR-4, > 15.8 µM (inactive); in the assay with PC-3, > 17.8 µM (inactive); with MCF7 it was > 17.5 µM (inactive); with RXF 393 it was 63 µM (inactive); in the assay with Malme-3M, > 26.5 µM (inactive). Moreover, the GI50 was 7.67 µM in the assay on HCT-15; > 100 µM (inactive) in the assay with T47D; > 14.6 µM (inactive) in the assay on KM12; 15.3 µM (inactive) in the assay with RPMI-8226; > 15.1 µM (inactive) with M14; 6 µM (inactive) with CAKI-1. Moreover, the GI50 in the assay with ACHN is 18.6 µM (inactive); with CCRF-CEM, > 12.6 µM (inactive); in the assay on MDA-N, > 100 µM (inactive); in the assay with UACC-62 it was > 100 µM (inactive).
As to `CN(C)CCCCN1c2ccccc2Sc2ccc(N=[N+]=[N-])cc21`, the GI50 with BT-549 was 11.8 µM (inactive); with OVCAR-4, 6.43 µM (inactive); with PC-3, 3.15 µM (inactive); in the assay with MCF7, 2.45 µM (inactive); in the assay on RXF 393 it was 4.06 µM (inactive); in the assay with Malme-3M, 1.76 µM (inactive). Further, the GI50 with HCT-15 was 3.72 µM; with T47D, 4.32 µM (inactive); in the assay on KM12, 3.15 µM (inactive); with RPMI-8226, 2.29 µM (inactive); in the assay with M14, 1.67 µM (inactive); in the assay with CAKI-1, 5.62 µM (inactive). The GI50 with ACHN is 3.2 µM (inactive); with CCRF-CEM it was 2.69 µM (inactive); in the assay with MDA-N, 1.82 µM (inactive); with UACC-62, 1.88 µM (inactive).
As for `O=C(NCCNCCCNC(=O)c1cc(-c2ccccc2)nc2ccccc12)c1cccc(OCc2ccccc2)c1OCc1ccccc1`, the GI50 in the assay with BT-549 was 1.72 µM (inactive); with OVCAR-4 it was 1.64 µM (inactive); in the assay on PC-3 it was 1.67 µM (inactive); with MCF7, 1.66 µM (inactive); with RXF 393, 2.13 µM (inactive); in the assay with Malme-3M, 2.07 µM (inactive). Besides, the GI50 was 1.74 µM in the assay with HCT-15; 2.18 µM (inactive) in the assay on T47D; 1.83 µM (inactive) in the assay on KM12; 2.48 µM (inactive) in the assay on RPMI-8226; 1.65 µM (inactive) in the assay with M14; 1.61 µM (inactive) in the assay with CAKI-1. The GI50 in the assay with ACHN is 1.73 µM (inactive); in the assay with CCRF-CEM, 1.79 µM (inactive); with MDA-N, 1.66 µM (inactive); in the assay with UACC-62, 1.93 µM (inactive).
`CCOP(=O)(CCCC(O)CNc1nc(N)nc(Cl)c1/N=N/c1ccc(Cl)cc1)OCC` (stereo unspecified): the GI50 in the assay on BT-549 is 6.28 µM (inactive); with OVCAR-4, 4.45 µM (inactive); with PC-3, 4.86 µM (inactive); in the assay on MCF7, 11.9 µM (inactive); in the assay on RXF 393, 5.24 µM (inactive); in the assay with Malme-3M, 7.64 µM (inactive). In addition, the GI50 was 6.28 µM with HCT-15; 5.09 µM (inactive) in the assay with T47D; 11.2 µM (inactive) in the assay on KM12; 2.82 µM (inactive) in the assay with RPMI-8226; 3.02 µM (inactive) in the assay with CAKI-1; 4.05 µM (inactive) with ACHN. The GI50 in the assay with CCRF-CEM is 3.21 µM (inactive); in the assay on MDA-N, 5.82 µM (inactive); in the assay with UACC-62, 5.13 µM (inactive).
Take `Cn1c(=O)c2c(nc(N/N=C3/SCC(=O)N3Cc3ccccc3)n2C)n(C)c1=O`: the GI50 in the assay on BT-549 is 74 µM (inactive); in the assay with OVCAR-4, 26.4 µM (inactive); in the assay on PC-3, 39.2 µM (inactive); with MCF7, 81.7 µM (inactive); in the assay with RXF 393, > 100 µM (inactive); in the assay with Malme-3M, > 100 µM (inactive). In addition, the GI50 is 85.5 µM in the assay with HCT-15; 61.4 µM (inactive) in the assay on T47D; 94.2 µM (inactive) in the assay with KM12; 17.5 µM (inactive) in the assay with RPMI-8226; > 100 µM (inactive) in the assay on M14; > 100 µM (inactive) in the assay with CAKI-1. In addition, the GI50 with ACHN is > 100 µM (inactive); in the assay with CCRF-CEM it was 47.9 µM (inactive); with MDA-N it was > 100 µM (inactive); with UACC-62, 64.4 µM (inactive).
As to `Fc1ccccc1C1SCc2nc3cc4ccccc4cc3n21` (stereo unspecified), the GI50 in the assay on BT-549 is > 100 µM (inactive); in the assay with OVCAR-4, 35.1 µM (inactive); with PC-3, 78.3 µM (inactive); in the assay on MCF7, 22.7 µM (inactive); in the assay with RXF 393, 13.3 µM (inactive); with Malme-3M, > 100 µM (inactive). The GI50 with HCT-15 was 94.8 µM; in the assay on T47D, 14 µM (inactive); in the assay on KM12 it was > 100 µM (inactive); with RPMI-8226, > 100 µM (inactive); in the assay on M14, > 100 µM (inactive); in the assay on CAKI-1, 37 µM (inactive). Moreover, the GI50 was 28.8 µM (inactive) in the assay on ACHN, > 100 µM (inactive) in the assay on CCRF-CEM, 79.1 µM (inactive) in the assay on MDA-N and 57.9 µM (inactive) in the assay on UACC-62.
Consider `CN1COCc2c1ccc1cc3ccc4c(c3nc21)COCN4S(C)(=O)=O`, for which the GI50 was > 100 µM (inactive) in the assay on BT-549; > 100 µM (inactive) with OVCAR-4; > 100 µM (inactive) in the assay on PC-3; 0.202 µM (active) in the assay with MCF7; > 100 µM (inactive) in the assay on RXF 393; > 100 µM (inactive) in the assay on Malme-3M. Moreover, the GI50 was > 100 µM in the assay with HCT-15; > 100 µM (inactive) with T47D; > 100 µM (inactive) in the assay on KM12; > 100 µM (inactive) with M14; > 100 µM (inactive) with CAKI-1; > 100 µM (inactive) in the assay with ACHN. Moreover, the GI50 with CCRF-CEM, in the assay with MDA-N and with UACC-62 was > 100 µM (inactive) each time.
As to `O=C(O)Cc1cccc2c(=O)c3cccc([N+](=O)[O-])c3[nH]c12`, the GI50 in the assay on BT-549 is 27 µM (inactive); in the assay with OVCAR-4, 38.1 µM (inactive); in the assay with PC-3 it was > 100 µM (inactive); with MCF7, 80.9 µM (inactive); in the assay with Malme-3M it was 29.4 µM (inactive); with HCT-15 it was 71.8 µM. Also, the GI50 was > 100 µM (inactive) with T47D; 85.1 µM (inactive) with KM12; 12.9 µM (inactive) in the assay on RPMI-8226; 27.8 µM (inactive) in the assay with M14; > 100 µM (inactive) in the assay with CAKI-1; > 100 µM (inactive) in the assay on ACHN. The GI50 in the assay with CCRF-CEM is > 100 µM (inactive); in the assay on MDA-N, > 100 µM (inactive); in the assay on UACC-62, 25 µM (inactive).
